Results reported in US20260130933A1, “PHARMACEUTICAL COMPOSITION FOR PREVENTION OR TREATMENT OF NEPHROPATHY AND/OR DIABETES MELLITUS, COMPRISING ENAVOGLIFLOZIN” (DAEWOONG PHARMACEUTICAL CO., LTD., priority 2022, published 2026).

Test: Example 2: phase 3 trial, enavogliflozin 0.3 mg vs dapagliflozin 10 mg once a day for 24 weeks added to metformin in patients with type 2 diabetes (same efficacy, exploratory and safety endpoints)
Format: in vivo, human
Description: Subjects who met the inclusion/exclusion criteria were administered a placebo of the clinical trial drug under single-blind (subject blinding) conditions during a 2-week run-in period while continuing to receive metformin. […] The randomized subjects were administered two tablets of the clinical trial drug for each administration group once a day, and then visited the institution at weeks 6, 12, 18, and 24 during the 24-week administration period to conduct efficacy and safety evaluations.
• 1. Change in HbA1c at week 24 after administration of clinical trial drug compared to Visit 2 (randomization)
• 1. Change in HbA1c at each time point of weeks 6, 12, and 18 after administration of clinical trial drug compared to Visit 2 (randomization) • 2. Change in FPG at each time point of weeks 6, 12, 18, and 24 after administration of clinical trial drug compared to Visit 2 (randomization) • 3. Proportion of subjects achieving HbA1c<7% at each time point of weeks 6, 12, 18, and 24 after administration of clinical trial drug • 4. Proportion of subjects achieving HbA1c<6.5% at each time point of weeks 6, 12, 18, and 24 after administration of clinical trial drug • 5. Proportion of subjects achieving therapeutic response (HbA1c change (HbA1c at Visit 2-HbA1c at each evaluation time point)>0.5% or HbA1c<7% at each evaluation time point compared to Visit 2 (randomization)) at each time point of weeks 6, 12, 18 and 24 after administration of clinical trial drug
• 1. Change in fasting c-peptide at each time point of weeks 6, 12, 18, and 24 after administration of clinical trial drug compared to Visit 2 (randomization) • 2. Change in body weight at each time point of weeks 6, 12, 18, and 24 after administration of clinical trial drug compared to Visit 2 (randomization) • 3. Change in fasting lipid concentration (total cholesterol, LDL-C, HDL-C, and triglycerides) at each time point of weeks 6, 12, 18, and 24 after administration of clinical trial drug compared to Visit 2 (randomization) • 4. Changes in systolic or diastolic blood pressure at each time point of weeks 6, 12, 18, and 24 after administration of clinical trial drug compared to Visit 2 (randomization) • 5. Changes in β-cell function and insulin resistance measured by HOMA-β and HOMA-IR at each time point of weeks 6, 12, 18, and 24 after administration of clinical trial drug compared to Visit 2 (randomization) • 6. Changes in renal function-related indicators (UACR, UGCR) measured by UACR at each time point of weeks 6, 12, 18, and 24 after administration of clinical trial drug compared to Visit 2 (randomization) • 7. Changes in obesity-related indicators (adiponectin, leptin) at each time point of weeks 6, 12, 18, and 24 after administration of clinical trial drug compared to Visit 2 (randomization)

[1] = week 6, modified per-protocol set 1, enavogliflozin 0.3 mg, dapagliflozin 10 mg
[2] = week 6, per-protocol set, enavogliflozin 0.3 mg, dapagliflozin 10 mg
[3] = week 12, modified per-protocol set 1, enavogliflozin 0.3 mg, dapagliflozin 10 mg

## CCOc1ccc(Cc2cc([C@@H]3O[C@H](CO)[C@@H](O)[C@H](O)[C@H]3O)ccc2Cl)cc1 [Dapagliflozin, reference compound]
Week 24, PPS
  HOMA-IR, Median: 1.82
  HOMA-β change from baseline, ANCOVA LS mean (SE): 11.93
  HOMA-β change from baseline, Mean (SD): 12.23
  HOMA-β change from baseline, Median: 5.30
  HOMA-β, Mean (SD): 56.67
  HOMA-β, Median: 46.75
  Leptin change from baseline, ANCOVA LS mean (SE): -1.28 ng/mL
  Leptin change from baseline, Mean (SD): -1.31 ng/mL
  Leptin change from baseline, Median: -1.17 ng/mL
  Leptin, Mean (SD): 10.37 ng/mL
  Leptin, Median: 6.69 ng/mL
  UACR change from baseline, ANCOVA LS mean (SE): -17.37 g/kg
  UACR change from baseline, Mean (SD): -25760 mg/kg
  UACR change from baseline, Median: -1.70 g/kg
  UACR, Mean (SD): 31370 mg/kg
  UACR, Median: 11.10 g/kg
  UGCR change from baseline, ANCOVA LS mean (SE): 44.94 mg/mg
  UGCR change from baseline, Mean (SD): 43.01 mg/mg
  UGCR change from baseline, Median: 42.01 mg/mg
  UGCR, Mean (SD): 45.27 mg/mg
  UGCR, Median: 43.81 mg/mg
Week 24, mPPS1
  HDL-C change from baseline, ANCOVA LS mean (SE): 3.19(0.66) mg/dL
  HDL-C change from baseline, Mean (SD): 3.55(5.30) mg/dL
  HDL-C change from baseline, Median: 3.00 mg/dL
  HDL-C, Mean (SD): 50.45(9.72) mg/dL
  HDL-C, Median: 50.00 mg/dL
  LDL-C change from baseline, ANCOVA LS mean (SE): 0.93(1.98) mg/dL
  LDL-C change from baseline, Mean (SD): 2.68(20.64) mg/dL
  LDL-C change from baseline, Median: 2.00 mg/dL
  LDL-C, Mean (SD): 78.84(25.81) mg/dL
  LDL-C, Median: 76.00 mg/dL
  Triglycerides change from baseline, ANCOVA LS mean (SE): −6.70(5.28) mg/dL
  Triglycerides change from baseline, Mean (SD): −10.64(52.51) mg/dL
  Triglycerides change from baseline, Median: -7.00 mg/dL
  Triglycerides, Mean (SD): 122.28(58.14) mg/dL
  Triglycerides, Median: 110.00 mg/dL
Week 24, mPPS2
  Diastolic blood pressure change from baseline, ANCOVA LS mean (SE): −4.26 mmHg
  Diastolic blood pressure change from baseline, Mean (SD): −3.87 mmHg
  Diastolic blood pressure change from baseline, Median: −4.00 mmHg
  Diastolic blood pressure, Mean (SD): 72.05 mmHg
  Diastolic blood pressure, Median: 71.00 mmHg
  Systolic blood pressure change from baseline, ANCOVA LS mean (SE): −6.57(1.04) mmHg
  Systolic blood pressure change from baseline, Mean (SD): −6.03(12.13) mmHg
  Systolic blood pressure change from baseline, Median: −7.00 mmHg
  Systolic blood pressure, Mean (SD): 121.40(11.90) mmHg
  Systolic blood pressure, Median: 122.00 mmHg
Week 6
  FPG change from baseline, LS mean (SE): −23.81(2.23) mg/dL
  HOMA-IR change from baseline, LS mean (SE): −1.31(0.15)
  HOMA-β change from baseline, LS mean (SE): −1.79(5.59)
  HbA1c change from baseline, LS mean (SE): −0.63(0.04) % p
  LDL-C change from baseline, LS mean (SE): 4.20(1.95) mg/dL
  Subjects achieving HbA1c target of <7%: (51.69) %
  Subjects achieving HbA1c<6.5%: 14.61%
  Subjects achieving therapeutic response (HbA1c change >0.5% or HbA1c<7%): 79.78%
  UACR change from baseline, LS mean (SE): 8.13(10.88) g/kg
  UGCR change from baseline, LS mean (SE): 50.10(2.80) mg/mg
  diastolic blood pressure change from baseline, LS mean (SE): −1.47(0.72) mmHg
  fasting c-peptide change from baseline, LS mean (SE): −0.07(0.02) ng/ml
  leptin change from baseline, LS mean (SE): −1.62(0.47) ng/mL
Week 6, listed as dapagliflozin
  Subjects achieving HbA1c target of <7%: 51.69%
[1]
  Change from baseline in Total cholesterol, ANCOVA LS mean (SE): 6.87(2.27) mg/dL
  Change from baseline in Total cholesterol, Mean (SD): 7.71(22.44) mg/dL
  Change from baseline in total cholesterol, Median: 7.00 mg/dL
  fasting Total cholesterol, Mean (SD): 145.62(31.91) mg/dL
  fasting Total cholesterol, Median: 145.50 mg/dL
[2]
  Change from baseline in FPG, ANCOVA LS mean (SE): -23.81 mg/dL
  Change from baseline in FPG, Mean (SD): -24.90 mg/dL
  Change from baseline in FPG, Median: -24.00 mg/dL
  Change from baseline in HbA1c, ANCOVA LS mean (SE): −0.63 % p
  Change from baseline in HbA1c, Mean (SD): −0.58 % p
  Change from baseline in HbA1c, Median: −0.59 % p
  Change from baseline in body weight, ANCOVA LS mean (SE): −1.61(0.21) kg
  Change from baseline in body weight, Mean (SD): −1.60(1.25) kg
  Change from baseline in body weight, Median: -1.50 kg
  Change from baseline in fasting c-peptide, ANCOVA LS mean (SE): −0.07(0.02) ng/mL
  Change from baseline in fasting c-peptide, Mean (SD): −0.07(0.18) ng/mL
  Change from baseline in fasting c-peptide, Median: -0.07 ng/mL
  FPG, Mean (SD): 124.37 mg/dL
  FPG, Median: 122.00 mg/dL
  HbA1c, Mean (SD): 7.10%
  HbA1c, Median: 6.98%
  Subjects achieving HbA1c target of <6.5%, (%): (14.61) %
  Subjects achieving therapeutic glycemic response, (%): (79.78) %
  body weight, Mean (SD): 68.88(11.86) kg
  body weight, Median: 66.90 kg
  fasting c-peptide, Mean (SD): 0.66(0.20) ng/mL
  fasting c-peptide, Median: 0.63 ng/mL
Week 12
  FPG change from baseline, LS mean (SE): −30.11(2.03) mg/dL
  HOMA-IR change from baseline, LS mean (SE): −1.60(0.17)
  HOMA-β change from baseline, LS mean (SE): 8.75(3.15)
  HbA1c change from baseline, LS mean (SE): −0.79(0.05) % p
  LDL-C change from baseline, LS mean (SE): 0.56(1.73) mg/dL
  Subjects achieving HbA1c target of <7%: (63.64) %
  Subjects achieving HbA1c<6.5%: 26.14%
  Subjects achieving therapeutic response (HbA1c change >0.5% or HbA1c<7%): 79.55%
  UACR change from baseline, LS mean (SE): −3.38(7.57) g/kg
  UGCR change from baseline, LS mean (SE): 45.14(2.66) mg/mg
  diastolic blood pressure change from baseline, LS mean (SE): −4.35(0.81) mmHg
  fasting c-peptide change from baseline, LS mean (SE): −0.09(0.02) ng/ml
  leptin change from baseline, LS mean (SE): −2.70(0.51) ng/mL
Week 12, listed as dapagliflozin
  Subjects achieving HbA1c target of <7%: 63.64%
[3]
  Change from baseline in Total cholesterol, ANCOVA LS mean (SE): 4.25(2.04) mg/dL
  Change from baseline in Total cholesterol, Mean (SD): 5.47(18.88) mg/dL
  Change from baseline in total cholesterol, Median: 5.00 mg/dL
